This is an account of results in ChEMBL document CHEMBL2163341, “Discovery of MK-7725, A Potent, Selective Bombesin Receptor Subtype-3 Agonist for the Treatment of Obesity” (ACS Med Chem Lett, 2012).

For series [1], the system named is Rhesus monkey. In words: Dose normalized AUC in rhesus monkey at 1 mg/kg, po. It is filed as ADME, organism-based, Macaca mulatta. Also on record: dose 1 mg/kg, route oral. The following applies: in vivo.
Series [2] concerns Rattus norvegicus. In words: Antiobesity activity in DIO Sprague-Dawley rat assessed as reduction of body weight at 50 mg/kg, po administered bid for 12 days. It is filed as functional. More on the design: scale not given: the % may be the effect or the level left.
The target in series [3] is T1, Nuclear receptor subfamily 1 group I member 2 (Homo sapiens, UniProt O75469).
T1 sequence (O75469 whole entry): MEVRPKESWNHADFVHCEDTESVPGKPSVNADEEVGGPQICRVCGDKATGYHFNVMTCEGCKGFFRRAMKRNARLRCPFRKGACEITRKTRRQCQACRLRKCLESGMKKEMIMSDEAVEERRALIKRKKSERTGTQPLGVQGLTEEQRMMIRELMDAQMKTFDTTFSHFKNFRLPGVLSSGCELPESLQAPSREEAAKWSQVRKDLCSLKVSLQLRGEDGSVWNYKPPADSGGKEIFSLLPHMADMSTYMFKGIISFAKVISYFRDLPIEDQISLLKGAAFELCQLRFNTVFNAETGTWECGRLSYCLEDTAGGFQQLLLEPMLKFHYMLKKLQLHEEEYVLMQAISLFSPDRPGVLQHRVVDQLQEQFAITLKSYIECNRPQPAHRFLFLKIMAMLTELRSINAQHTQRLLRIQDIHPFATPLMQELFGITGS
In words: Activation of PXR at 10 uM.

Series [4] addresses T1, Nuclear receptor subfamily 1 group I member 2. In words: Activation of PXR.
Series [5] deals with Rattus norvegicus. In words: Dose normalized AUC in Sprague-Dawley rat at 1 mg/kg, po. It is filed as ADME, organism-based. More on the design: dose 1 mg/kg, route oral. The note with it: in vivo.
The test system of series [6] is Rattus norvegicus. In words: Toxicity in DIO Sprague-Dawley rat assessed as tachyphylaxis at 15 to 50 mg/kg, po administered bid for 12 days. The note with it: in vivo, 288 h. It is filed as organism-based. Also on record: dose 15-50 mg/kg, route oral.
The nature of series [7]: Half life in rhesus monkey at 0.5 mg/kg, iv. It is filed as ADME, organism-based, Macaca mulatta. More on the design: dose 0.5 mg/kg, route intravenous. The following applies: in vivo.
In series [8] the test system is Mus musculus. In words: Increase of core body temperature in DIO mouse assessed as AUC (1 to 6 hrs) of body temperature changes at 3 mg/kg by fasted temperature PD assay. It is filed as functional.
The target in series [9] is T2, Bombesin receptor subtype-3 (Mus musculus) (UniProt O54798).
T2 sequence (whole entry): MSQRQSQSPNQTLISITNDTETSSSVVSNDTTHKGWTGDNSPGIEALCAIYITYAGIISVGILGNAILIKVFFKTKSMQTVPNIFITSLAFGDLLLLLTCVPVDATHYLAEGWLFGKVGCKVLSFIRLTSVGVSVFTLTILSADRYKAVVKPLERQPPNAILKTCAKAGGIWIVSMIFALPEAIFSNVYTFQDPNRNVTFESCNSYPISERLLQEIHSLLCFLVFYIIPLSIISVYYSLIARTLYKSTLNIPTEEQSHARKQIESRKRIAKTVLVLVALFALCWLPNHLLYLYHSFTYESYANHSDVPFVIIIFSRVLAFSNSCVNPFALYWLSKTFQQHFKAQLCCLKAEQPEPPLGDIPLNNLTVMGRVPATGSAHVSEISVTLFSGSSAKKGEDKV
Briefly: Agonist activity at mouse BRS-3 expressed in HEK293AEQ cells assessed as bioluminescence for 10 mins by aequorin bioluminescence assay relative to dY-peptide. It is filed as functional, cell-based.

Series [10] can be described thus: Oral bioavailability in dog at 1 mg/kg. The note with it: in vivo. It is filed as ADME, organism-based, Canis lupus familiaris.
The nature of series [11]: Oral bioavailability in rhesus monkey at 1 mg/kg. It is filed as ADME, organism-based, Macaca mulatta. The note with it: in vivo.
Series [12] relates to Rattus norvegicus. Briefly: Antiobesity activity in DIO Sprague-Dawley rat assessed as reduction of body weight at 15 mg/kg, po administered bid for 12 days. It is filed as functional. More on the design: scale not given: the % may be the effect or the level left.
Series [13] can be described thus: Plasma clearance in dog at 0.5 mg/kg, iv. It is filed as ADME, organism-based, Canis lupus familiaris. Also on record: dose 0.5 mg/kg, route intravenous.
Series [14] relates to Canis familiaris. In words: Dose normalized AUC in dog at 1 mg/kg, po. The note with it: in vivo. It is filed as ADME, organism-based, Canis lupus familiaris. Also on record: dose 1 mg/kg, route oral.
The subject of series [15] is Canis familiaris. In words: Antiobesity activity in obese Beagle dog assessed as reduction of body weight at 5 to 15 mg/kg, po administered for 7 days relative to control. It is filed as functional, Canis lupus familiaris. Also on record: scale not given: the % may be the effect or the level left. The following applies: dose mg/kg 5-15.
In series [16] the test system is Rattus norvegicus. Briefly: Antiobesity activity in DIO Sprague-Dawley rat assessed as increase in metabolic rate at 15 to 50 mg/kg, po administered bid for 12 days. It is filed as functional, organism-based.
A short description of series [17]: Plasma clearance in rhesus monkey at 0.5 mg/kg, iv. More on the design: dose 0.5 mg/kg, route intravenous. It is filed as ADME, organism-based, Macaca mulatta.
The subject of series [18] is Mus musculus. Briefly: Antiobesity activity in BRS-3 knock out DIO C57BL/6 mouse assessed as reduction of food intake at 100 mg/kg, po after 18 hrs. It is filed as functional, organism-based. Also on record: dose 100 mg/kg.
Series [19] deals with Mus musculus. Briefly: Antiobesity activity in po dosed wild type DIO C57 mouse assessed as reduction of body weight. It is filed as functional, organism-based.
The test system of series [20] is Mus musculus. Briefly: Antiobesity activity in po dosed wild type DIO C57 mouse assessed as reduction of food intake. It is filed as functional, organism-based.
Series [21] is described as follows: Half life in dog at 0.5 mg/kg, iv. It is filed as ADME, organism-based, Canis lupus familiaris. Also on record: dose 0.5 mg/kg, route intravenous. The note with it: in vivo.

Each structure is given as a SMILES string. pEC50: −log10 of the molar value. The source made the active and inactive calls. The calls are words filed in the database; no cut-off is given here.

Take `CC(C)(O)c1nc(-c2cccc3c2N(S(=O)(=O)c2ccc(OC(F)(F)F)cc2)Cc2ccc(C(F)(F)F)nc2N3)no1`: the AUC/dose in [1] was 12 µM·kg·h/mg; in [5], 1.6 µM·kg·h/mg; in series [14], 10 µM·kg·h/mg. The Activity in [2] was 3.2%; in series [3], 17%; in series [6], “Non-toxic”; in series [8] it was 5.6 degreeC.hr; in series [9] it was 106%; in series [12], 4%. Also, the values for the Activity in series [15], in series [19] and in series [20] were 4%, “Dose-dependent effect” and “Dose-dependent effect”, respectively. Also, in [4], the negative-log EC50 (pEC50) was below 4.52. For the same compound, the half-life in [7] was 33 h; in series [21] it was 18 h. For the same compound, the values for the bioavailability in series [10] and in [11] were 100% and 58%, respectively. In addition, the clearance came out at 2.9 mL/min/kg in [13] and 1.3 mL/min/kg in series [17]. Moreover, the result in series [16] was Active. Also, the result in series [18] was inactive.

As a reminder, the pEC50 is the EC50 on a negative log10 scale, so that one unit is a factor of ten. The term half-life denotes how long it takes for the measured level to halve. As a reminder, the bioavailability is dose-corrected exposure relative to a reference, in per cent. In general, clearance refers to a measure of how efficiently the substance is removed, as volume per time.
